Consider six molecules from US12484581B2, “Agricultural or horticultural insecticide or animal ectoparasite or endoparasite control agent each comprising a condensed heterocyclic compound having a substituted cyclopropane-oxadiazole group or a salt thereof as active ingredient, and method for using the insecticide or the control agent” (NIHON NOHYAKU CO., LTD., priority 2019, dated 2025).

Common to all, as to type: in vivo
Data set [1] concerns Ctenocephalides felis. Nature of the data set: whole plant or invertebrate. The conditions noted are these: 50 ppm in bovine blood, oral via feeder, adults, following day, read-out: mortality rate.
The test system of data set [2] is Dirofilaria immitis. Nature of the data set: Larval motility assay on Dirofilaria immitis. The conditions noted are these: 72 h, L1 stage larvae, 3 days, relative to DMSO only, read-out: percent motility inhibition. Here is the method: Larval Motility Assay on Dirofilaria immitis
Five hundred L1 stage larvae of D. immitis were diluted in a predetermined conditioned medium and introduced into each well of a 96-well plate. DMSO diluted solutions of various compounds of the present invention were added at the final concentration of 50 ppm to the wells of the 96-well plate. The plate was allowed to stand for 3 days, and then larval motility was examined. The percent motility inhibition in the wells of each treatment was calculated relative to the wells of treatment with DMSO only.

For data set [3], the system named is Haemonchus contortus. Nature of the data set: Larval motility assay on Haemonchus contortus. The conditions noted are these: 96 h, L1 stage larvae, 4 days, relative to DMSO only, read-out: percent motility inhibition. Here is the method:
Larval Motility Assay on Haemonchus contortus
DMSO diluted solutions of various compounds of the present invention were added at the final concentration of 50 ppm to the wells of a 96-well plate containing a predetermined conditioned medium. Twenty L1 stage larvae of H. contortus were introduced into each well of the 96-well plate. The plate was allowed to stand for 4 days, and then larval motility was examined. The percent motility inhibition in the wells of each treatment was calculated relative to the wells of treatment with DMSO only.

For data set [4], the system named is Plutella xylostella. Nature of the data set: whole plant or invertebrate. The following applies: 144 h, Chinese cabbage seedlings with laid eggs dipped about 30 seconds, 6 days after dip treatment, criteria of Test Example 1, read-out: insecticidal efficacy (corrected mortality rate).
The subject of data set [5] is Laodelphax striatellus. Nature of the data set: whole plant or invertebrate. The conditions noted are these: 192 h, rice seedlings dipped 30 seconds, 3rd-instar larvae, 8 days after inoculation, criteria of Test Example 1, read-out: insecticidal efficacy (corrected mortality rate).
Data set [6] deals with Rhipicephalus sanguineus. Nature of the data set: Assay for transdermal parasiticidal activity against nymphs of Rhipicephalus sanguineus. The following applies: 100 ppm applied to inside of sample bottles, two days later. The text has this:
DMSO diluted solutions of various compounds of the present invention were individually diluted to the final concentration of 100 ppm with an acetone/triton mixture and applied to the inside of vented sample bottles. After overnight drying, ten nymphs of R. sanguineus were introduced into each bottle, and the mortality rate was examined two days later. Aberrant adults were regarded as the dead.

Consider `CCS(=O)(=O)c1cc(-c2noc(C3(C)CC3)n2)cnc1-c1nc2cc(C(F)(F)F)cnc2n1C` [Compound 1-2], for which the mortality at 50 ppm in data set [1] is at least 50%. The inhibition at 50 ppm in data set [2] and in data set [3] was at least 50% throughout. Also, the mortality at 500 ppm in data set [4] and in data set [5] was 100% in each case.

Turning to `CCS(=O)(=O)c1cc(-c2noc(C3(c4ccccc4)CC3)n2)cnc1-c1nc2cc(C(F)(F)F)cnc2n1C` [Compound 1-5], the “parasiticidal activity (mortality rate)” value in data set [6] is reported as “parasiticidal activity”. Further, the inhibition at 50 ppm in data set [2] and in data set [3] was at least 50% throughout. The mortality at 500 ppm in data set [4] and in data set [5] was 100% throughout.

Take `CCS(=O)(=O)c1cc(-c2noc(C3(C(F)(F)F)CC3)n2)cnc1-c1nc2cc([S+]([O-])C(F)(F)F)ccc2n1C` (stereo not drawn) [Compound 1-8]: the mortality at 500 ppm in data set [4] and in data set [5] was 100% each time.

For `CCS(=O)(=O)c1cc(-c2noc(C3(C(F)(F)F)CC3)n2)cnc1-c1nc2cc(C(F)(F)F)cnc2n1C` [Compound 1-4, 3-(5-ethylsulfonyl-6-(3-methyl-6-trifluoromethyl-3H-imidazo [4,5-b]pyridin-2-yl)pyridin-3-yl)-5-(1-trifluoromethylcyclopropyl)-1,2,4-oxadiazole], the mortality at 50 ppm in data set [1] was at least 50%. Further, the “parasiticidal activity (mortality rate)” value in data set [6] is on record as “parasiticidal activity”. The inhibition at 50 ppm in data set [2] and in data set [3] was at least 50% each time. The mortality at 500 ppm in data set [4] and in data set [5] was 100% in each case.

Take `CCS(=O)(=O)c1cc(-c2noc(C3CC3C)n2)cnc1-c1nc2cc(C(F)(F)F)cnc2n1C` (stereo not drawn) [Compound 1-6, 3-(5-ethylsulfonyl-6-(3-methyl-6-trifluoromethyl-3H-imidazo[4,5-b]pyridin-2-yl)pyridin-3-yl)-5-(2-methylcyclopropyl)-1,2,4-oxadiazole]: the inhibition at 50 ppm in data set [2] and in data set [3] was at least 50% throughout. Moreover, the mortality at 500 ppm in data set [4] and in data set [5] was 100% each time.

Take `CCS(=O)(=O)c1cc(-c2noc(C3(C(F)(F)F)CC3)n2)cnc1-c1nc2cc(C(F)(F)F)ncc2n1C` [Compound 1-7]: the mortality at 50 ppm in data set [1] was at least 50%. Further, the inhibition at 50 ppm in data set [2] and in data set [3] was at least 50% throughout. For the same molecule, the mortality at 500 ppm in data set [4] and in data set [5] was 100% each time.
